Data as given in patent publication US11529350B2, “Tyrosine kinase non-receptor 1 (TNK1) inhibitors and uses thereof” (Sumitomo Pharma Oncology, Inc., priority 2019, dated 2022).
pIC50: −log10 of the molar value.

What was measured:
[1] = tested on: phospho-STAT5 in L540 cells; test: In vitro pSTAT5 assay (ELISA) in L540 cells; type: cell-based; conditions: Homo sapiens, L-540, 24 hours, normalized to cell viability, read-out: P-STAT5 Assay IC50
Method: The L540 cell line harbors a truncating mutation in the C-terminal regulatory region of the protein. As a consequence, TNK1 in L540 cells is constitutively active in phosphorylating key proteins, including STAT5. In TNK1 wild-type conditions (e.g., K562 CML cells), STAT5 phosphorylation is achieved in a TNK1-independent fashion. As such, reductions in phospho-STAT5 signal specific to the L540 cells are a good readout of TNK1 inhibitor function.
Methods: The in vitro pSTAT5 assay was performed with STAT5 AB (pY964/699) SimpleStep ELISA Kit (Abcam No. ab176656) according to the manufacturer's protocol. Briefly, L540 cells were grown in RPMI1640 media under standard culture conditions (10% FBS with penicillin/streptomycin). To assess test compound effects, cells were plated in 96 well plates (250,000 cells/mL) and allowed to grow overnight. Cells were subsequently treated with varying concentrations of test compound for 24 hours, before being harvested and interrogated with the STAT5 AB (pY964/699) SimpleStep ELISA Kit according to the manufacturer's protocol. Phospho-STAT5 signal was normalized to cell viability, as assessed by the CellTiter-Glo assay (Promega, Cat. No. G7570) on treated cells. TNK1 inhibitor IC50s were determined using Graphpad Prism software on normalized phospho-STAT5 measurements.

TNK1 [2] = target: T1, TNK1 (Homo sapiens, UniProt Q13470); test: TNK1 NanoBRET target engagement assay (HEK293); type: cell-based; parameters: host or cells: HEK293; conditions: HEK293 cells, 2 hours; read-out: NanoBRET TE Assay (HEK293) IC50
T1 sequence (Q13470 1-666): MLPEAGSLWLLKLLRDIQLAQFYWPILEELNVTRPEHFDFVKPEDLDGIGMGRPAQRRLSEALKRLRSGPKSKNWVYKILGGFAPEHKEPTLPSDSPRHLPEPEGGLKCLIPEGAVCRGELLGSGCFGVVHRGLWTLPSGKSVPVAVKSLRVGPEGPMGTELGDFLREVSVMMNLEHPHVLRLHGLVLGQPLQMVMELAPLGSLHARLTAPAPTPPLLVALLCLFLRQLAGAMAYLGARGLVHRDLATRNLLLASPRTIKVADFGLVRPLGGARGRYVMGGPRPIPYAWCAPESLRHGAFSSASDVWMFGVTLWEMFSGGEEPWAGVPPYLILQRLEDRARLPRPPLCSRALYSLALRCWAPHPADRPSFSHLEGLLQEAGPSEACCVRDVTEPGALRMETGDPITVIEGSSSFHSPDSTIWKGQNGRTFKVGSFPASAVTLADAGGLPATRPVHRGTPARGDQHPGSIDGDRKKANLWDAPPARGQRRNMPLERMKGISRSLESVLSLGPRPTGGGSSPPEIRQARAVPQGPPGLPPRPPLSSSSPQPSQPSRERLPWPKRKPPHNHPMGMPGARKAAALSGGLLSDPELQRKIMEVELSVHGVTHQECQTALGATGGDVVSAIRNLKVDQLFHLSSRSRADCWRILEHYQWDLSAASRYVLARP
Description: The NanoBRET target engagement (TE) assay (Promega, Madison, Wis.) enables the interrogation of the displacement of a tracer compound in the active site of a recombinant kinase by a test compound in the intracellular setting. The assay enables simultaneous testing of permeability, solubility, and kinase inhibition, and tests the specific interaction of test agents with a kinase of interest, here, TNK1. The assay is based on the principle of bioluminescence resonance energy transfer (BRET). In the assay, a plasmid-encoded, luciferase-tagged form of TNK1 is transfected into cells. A tracer compound is tagged with a fluorophore that fluoresces when bound to the TNK1 protein. Readout is luminescence and fluorescence. Test compounds show activity by displacing the tracer, thus disrupting BRET.
Methods: The TNK1 NanoBRET TE assays were performed according to the manufacturer's protocol. Briefly, Nanoluc-TNK1 Fusion Vector (Promega, Madison, Wis., Cat. No. NV2181) was transfected into HEK293 cells in bulk (8×10^6 cells in a T175 flask). Up to 30 hours post-transfection, cells were harvested by trypsinization, resuspended at a concentration of 2×10^5 cells/mL, and seeded in 96-well plates at 85 μL/well. A test compound and the K5 tracer were added to each well, and the cells were incubated for 2 hours. Luminescence ([…]) and fluorescence ([…]) were measured to determine a BRET ratio. IC50 values were determined from the BRET ratios using the Graphpad Prism software (GraphPad Software, San Diego, Calif.).

TNK1 [3] = target: T1, TNK1; test: RBC HotSpot Kinase Assay; type: biochemical; parameters: purchased Reaction Biology Corp., Malvern, Pa; conditions: ATP 10 μM
Method: The RBC HotSpot Kinase assay (Reaction Biology Corp., Malvern, Pa.) was used to evaluate the ability of test compounds to modulate (e.g., inhibit) the enzymatic activity of human TNK1 (UniProt Accession No. Q13470) in the following reaction:
Reagent: Base Reaction buffer; 20 mM Hepes (pH 7.5), 10 mM MgCl2, 1 mM EGTA, 0.02% Brij35, 0.02 mg/ml BSA, 0.1 mM Na3VO4, 2 mM DTT, 1% DMSO. Required cofactors were added individually to each kinase reaction.
Compound handling: Test compounds were dissolved in 100% DMSO to specific concentration. The serial dilution was conducted by Integra Viaflo Assist in DMSO.
1. Prepared substrate (peptide substrate, poly[Glu:Tyr] (4:1), 0.2 mg/ml; ATP 10 μM) in freshly prepared Reaction Buffer;
2. Delivered any required cofactors to the substrate solution;
3. Delivered kinase (TNK1) into the substrate solution and gently mixed;
4. Delivered compounds in 100% DMSO into the kinase reaction mixture by Acoustic technology (Echo550; nanoliter range), incubated for 20 minutes at room temperature;
5. Delivered ^33P-ATP (specific activity 10 μCi/μl) into the reaction mixture to initiate the reaction;
6. Incubated for 2 hours at room temperature;
7. Detected radioactivity by filter-binding method;
8. Kinase activity data were expressed as the percent remaining kinase activity in test samples compared to vehicle (dimethyl sulfoxide) reactions. IC50 values and curve fits were obtained using Prism (GraphPad Software).

| pIC50 (TNK1 [2]) | pIC50 (TNK1 [3]) | SMILES | pIC50 [1] |
| --- | --- | --- | --- |
| < 6.00 | 7.82 to 8.30 | CN1CCN(c2ccc(Nc3ncc(Cl)c(Nc4cccnc4N(C)C)n3)c3ccccc23)CC1 [Example No. 17, 5-chloro-N4-(2-(dimethylamino)pyridin-3-yl)-N2-(4-(4-methylpiperazin-1-yl)naphthalen-1-yl)pyrimidine-2,4-diamine] | < 7.30 |
| 6.00 to 6.82 | 7.82 to 8.30 | COc1cc(N2CCN(C)CC2)c(Cl)cc1Nc1ncc(Cl)c(Nc2cccnc2N2CCCCC2=O)n1 [Example No. 19, 1-(3-((5-chloro-2-((5-chloro-2-methoxy-4-(4-methylpiperazin-1-yl)phenyl)amino)pyrimidin-4-yl)amino)pyridin-2-yl)piperidin-2-one] | 7.30 to 8.30 |
| 6.00 to 6.82 | 7.82 to 8.30 | COc1cc(N2CCN(C)CC2)c(C)cc1Nc1ncc(C#N)c(Nc2cccnc2N(C)C)n1 [Example No. 20] | – |
| – | > 8.30 | COc1cc(N2CCN(C)CC2)c(Cl)cc1Nc1ncc(Br)c(Nc2cccnc2N(C)C)n1 [Example No. 22, 5-bromo-N-(5-chloro-2-methoxy-4-(4-methylpiperazin-1-yl)phenyl)-N-(2-(dimethylamino)pyridin-3-yl)pyrimidine-2,4-diamine] | – |
| – | > 8.30 | CN1CCN(c2c(Cl)cc(Nc3ncc(Cl)c(Nc4cccnc4N4CCCC4=O)n3)c3cccnc23)CC1 [Example No. 24, 1-(3-((5-chloro-2-((7-chloro-8-(4-methylpiperazin-1-yl)quinolin-5-yl)amino)pyrimidin-4-yl)amino)pyridin-2-yl)pyrrolidin-2-one] | – |
| – | > 8.30 | COc1cc(N2CCN(C)CC2)c(C)cc1Nc1ncc(Br)c(Nc2ccncc2N(C)C)n1 [Example No. 25, 5-bromo-N-(3-(dimethylamine)pyridin-4-yl)-N-(2-methoxy-5-methyl-4-(4-methylpiperazin-1-yl)phenyl)pyrimidine-2,4-diamine] | – |
| – | > 8.30 | [2H]C([2H])([2H])N(c1ncccc1Nc1nc(Nc2cc(C)c(N3CCN(C)CC3)cc2OC)ncc1Br)C([2H])([2H])[2H] [Example No. 27, N^4-(2-(bis(methyl-d3)amino)pyridin-3-yl)-5-bromo-N-(2-methoxy-5-methyl-4-(4-methylpiperazin-1-yl)phenyl)pyrimidine-2,4-diamine] | – |
| – | > 8.30 | [2H]C([2H])([2H])N1CCN(c2cc(OC)c(Nc3ncc(Cl)c(Nc4cccnc4N4CCCC4=O)n3)cc2Cl)CC1 [Example No. 29, 1-(3-((5-chloro-2-((5-chloro-2-methoxy-4-(4-(methyl-d3)piperazin-1-yl)phenyl)amino)pyrimidin-4-yl)amino)pyridin-2-yl)pyrrolidin-2-one] | – |
| – | > 8.30 | COc1cc(N2CCN(CCO)CC2)c(Cl)cc1Nc1ncc(Cl)c(Nc2cccnc2N2CCCC2=O)n1 [compound 30, 1-(3-((5-chloro-2-((5-chloro-4-(4-(2-hydroxyethyl)piperazin-1-yl)-2-methoxyphenyl)amino)pyrimidin-4-yl)amino)pyridin-2-yl)pyrrolidin-2-one] | – |

Continued, compound first:

| SMILES | pIC50 (TNK1 [2]) | pIC50 (TNK1 [3]) | pIC50 [1] |
| --- | --- | --- | --- |
| COc1cc(N2CCN(C)CC2)c(C)cc1Nc1ncc(C(C)=O)c(Nc2cccnc2N(C)C)n1 [Example No. 12, 1-(4-((2-(dimethylamino)pyridin-3-yl)amino)-2-((2-methoxy-5-methyl-4-(4-methylpiperazin-1-yl)phenyl)amino)pyrimidin-5-yl)ethan-1-one] | < 6.00 | 7.30 to 7.82 | < 7.30 |
| COc1cc(N2CCN(C)CC2)c(C)cc1Nc1ncc(Cl)c(Nc2cccnc2N2CCCCC2)n1 [Example No. 14, 5-chloro-N2-(2-methoxy-5-methyl-4-(4-methylpiperazin-1-yl)phenyl)-N4-(2-(piperidin-1-yl)pyridin-3-yl)pyrimidine-2,4-diamine] | < 6.00 | 7.30 to 7.82 | < 7.30 |
| COc1cc(N2CCN(C)CC2)c(C)cc1Nc1ncc(Cl)c(Nc2cccnc2N2CCCCC2=O)n1 [Example No. 15, 1-(3-((5-chloro-2-((2-methoxy-5-methyl-4-(4-methylpiperazin-1-yl)phenyl)amino)pyrimidin-4-yl)amino)pyridin-2-yl)piperidin-2-one] | 6.00 to 6.82 | 7.30 to 7.82 | < 7.30 |
| COc1cc(N2CCN(C)CC2)ccc1Nc1ncc(Cl)c(Nc2cccnc2N(C)C)n1 [Example No. 16, 5-chloro-N4-(2-(dimethylamino)pyridin-3-yl)-N2-(2-methoxy-4-(4-methylpiperazin-1-yl)phenyl)pyrimidine-2,4-diamine] | 6.00 to 6.82 | > 8.30 | 7.30 to 8.30 |
| COc1cc(N2CCN(C)CC2)c(Cl)cc1Nc1ncc(Br)c(Nc2cccnc2N2CCCC2=O)n1 [Example No. 23, 1-(3-((5-bromo-2-((5-chloro-2-methoxy-4-(4-methylpiperazin-1-yl)phenyl)amino)pyrimidin-4-yl)amino)pyridin-2-yl)pyrrolidin-2-one] | – | > 8.30 | – |
| CN1CCN(c2c(Cl)cc(Nc3ncc(Cl)c(Nc4cccnc4N4CCCC4=O)n3)c3c2CCCO3)CC1 [Example No. 26, 1-(3-((5-chloro-2-((6-chloro-5-(4-methylpiperazin-1-yl)chroman-8-yl)amino)pyrimidin-4-yl)amino)pyridin-2-yl)pyrrolidin-2-one] | – | > 8.30 | – |
| COc1cc(N2CCNCC2)c(Cl)cc1Nc1ncc(Cl)c(Nc2cccnc2N2CCCC2=O)n1 [Example No. 28, 1-(3-((5-chloro-2-((5-chloro-2-methoxy-4-(piperazin-1-yl)phenyl)amino)pyrimidin-4-yl)amino)pyridin-2-yl)pyrrolidin-2-one] | – | > 8.30 | – |
| COc1cc(N2CCN(C)CC2)c(C)cc1Nc1ncc(Cl)c(Nc2cccnc2N(C)C)n1 [compound 6, 5-chloro-N^4-(2-(dimethylamino)pyridin-3-yl)-N^2-(2-methoxy-5-methyl-4-(4-methylpiperazin-1-yl)phenyl)pyrimidine-2,4-diamine] | 6.00 to 6.82 | > 8.30 | 7.30 to 8.30 |
